From ChEMBL document CHEMBL1201862, “PubChem BioAssay data set” (2004)
Calls of active or inactive are those of the source.

Legend:
[1] = target: T1, Calpain-2 catalytic subunit (Sus scrofa, UniProt P43367); assay: m-calpain protease blockers, concentration series – biochemical, fluorogenic peptide substrate, dose response (AID 1420); format: functional
T1 sequence (P43367 whole entry): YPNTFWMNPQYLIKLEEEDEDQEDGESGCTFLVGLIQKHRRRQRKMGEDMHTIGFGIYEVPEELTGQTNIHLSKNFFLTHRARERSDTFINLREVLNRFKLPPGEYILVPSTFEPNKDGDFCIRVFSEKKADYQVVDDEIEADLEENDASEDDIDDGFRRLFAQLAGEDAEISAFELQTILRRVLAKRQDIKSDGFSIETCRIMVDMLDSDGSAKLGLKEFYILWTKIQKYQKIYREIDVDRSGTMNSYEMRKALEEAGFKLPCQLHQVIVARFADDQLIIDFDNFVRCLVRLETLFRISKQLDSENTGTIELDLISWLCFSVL

[2] = target: T2, Corticotropin-releasing factor receptor 2/Corticotropin-releasing factor-binding protein (Homo sapiens, UniProt P24387+Q13324); assay: activators of CRF receptor 2 with binding protein – uHTS hits, confirmation (AID 602473); format: functional; conditions: read-out: EC50_Mean
T2 sequence (Q13324 whole entry): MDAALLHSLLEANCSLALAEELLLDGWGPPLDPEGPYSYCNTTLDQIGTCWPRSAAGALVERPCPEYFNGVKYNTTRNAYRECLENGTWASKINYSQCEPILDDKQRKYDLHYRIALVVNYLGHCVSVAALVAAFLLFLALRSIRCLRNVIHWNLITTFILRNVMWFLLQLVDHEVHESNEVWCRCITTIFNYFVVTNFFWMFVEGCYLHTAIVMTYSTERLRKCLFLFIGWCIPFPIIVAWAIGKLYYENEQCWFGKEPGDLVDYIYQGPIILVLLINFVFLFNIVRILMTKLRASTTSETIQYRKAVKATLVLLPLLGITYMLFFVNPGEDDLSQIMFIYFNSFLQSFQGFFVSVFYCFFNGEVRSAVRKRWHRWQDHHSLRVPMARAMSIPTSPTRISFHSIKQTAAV
T2 sequence (P24387 whole entry): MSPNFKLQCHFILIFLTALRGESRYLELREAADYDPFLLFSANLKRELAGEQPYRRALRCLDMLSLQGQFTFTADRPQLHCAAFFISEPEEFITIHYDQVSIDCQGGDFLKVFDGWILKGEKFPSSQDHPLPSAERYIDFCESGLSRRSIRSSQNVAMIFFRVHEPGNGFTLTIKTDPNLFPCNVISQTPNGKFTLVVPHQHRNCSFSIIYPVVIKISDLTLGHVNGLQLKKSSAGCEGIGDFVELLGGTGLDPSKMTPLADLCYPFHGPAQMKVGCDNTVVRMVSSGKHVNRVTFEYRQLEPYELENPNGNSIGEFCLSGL

[3] = target: T2, Corticotropin-releasing factor receptor 2/Corticotropin-releasing factor-binding protein; assay: Dose Response confirmation of uHTS hits for small molecule antagonists of the CRF-binding protein and CRF-R2 receptor complex.; format: functional; conditions: read-out: IC50_Mean
[4] = HEK-293T viability loss after treatment – luminescence, T-cell screen hits, cytotoxicity control for TCR NF-kB inhibitor project, dose response (AID 489026); format: functional, cell-based;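 note: cells exposed to compound about 14 hours before the viability readout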
[5] = target: T3, Fatty acid synthase (Homo sapiens, UniProt P49327); assay: inhibition of human FAS-TE enzyme activity – biochemical, endpoint fluorescence intensity, uHTS hits, dose response (AID 624327); format: functional;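 note: fluorescence from hydrolysis of an O-methyl fluorescein acyl ester substrate by the enzyme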
[6] = target: T3, Fatty acid synthase; assay: inhibition of human FAS-TE enzyme activity – biochemical, kinetic fluorescence intensity, dose response (AID 624326); format: functional;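 note: rate of fluorescence rise from hydrolysis of a fluorogenic O-methyl fluorescein ester substrate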
[7] = non-specific 3'UTR reporter inhibition in Clone20-Shn3RL – cell-based, Renilla luciferase, cherry-picked, counter-screen for Shn3 inhibitor project, dose response (AID 624133); format: functional
[8] = reduction of Shn3 3'UTR-driven luciferase in osteoblasts – cell-based, Clone20 osteoblasts, firefly luciferase, cherry-picked, dose response (AID 624132); format: functional;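 note: firefly luciferase luminescence from reporter carrying the Shn3 3'UTR in osteoblasts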
[9] = test system: INS1; assay: INS-1E survival protection against cytokine death – cell-based, luminescence, retest, dose response (AID 449756); format: functional; conditions: Rattus norvegicus;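 note: cell death triggered by IL-1 beta plus TNF-alpha plus IFN-gamma mixture; protective hits raise ATP signal compared with cytokine alone wells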
[10] = loss of viability in HepG2 cells – cell-based, CellTiter-Glo, cherry-picked, cytotoxicity control for Shn3 inhibitor project, dose response (AID 624134); format: functional
[11] = cells; format: functional, cell-based
[12] = cells; format: functional, cell-based; remark: listed apart in the source
[13] = target: T4, Rac GTPase-activating protein 1 (Homo sapiens, UniProt Q9H0H5); assay: blockers of MgcRacGAP-driven Rac1 GTP hydrolysis – biochemical, ADP Hunter fluorescence, primary and confirmatory, confirmation (AID 624330); format: functional
T4 sequence (Q9H0H5 whole entry): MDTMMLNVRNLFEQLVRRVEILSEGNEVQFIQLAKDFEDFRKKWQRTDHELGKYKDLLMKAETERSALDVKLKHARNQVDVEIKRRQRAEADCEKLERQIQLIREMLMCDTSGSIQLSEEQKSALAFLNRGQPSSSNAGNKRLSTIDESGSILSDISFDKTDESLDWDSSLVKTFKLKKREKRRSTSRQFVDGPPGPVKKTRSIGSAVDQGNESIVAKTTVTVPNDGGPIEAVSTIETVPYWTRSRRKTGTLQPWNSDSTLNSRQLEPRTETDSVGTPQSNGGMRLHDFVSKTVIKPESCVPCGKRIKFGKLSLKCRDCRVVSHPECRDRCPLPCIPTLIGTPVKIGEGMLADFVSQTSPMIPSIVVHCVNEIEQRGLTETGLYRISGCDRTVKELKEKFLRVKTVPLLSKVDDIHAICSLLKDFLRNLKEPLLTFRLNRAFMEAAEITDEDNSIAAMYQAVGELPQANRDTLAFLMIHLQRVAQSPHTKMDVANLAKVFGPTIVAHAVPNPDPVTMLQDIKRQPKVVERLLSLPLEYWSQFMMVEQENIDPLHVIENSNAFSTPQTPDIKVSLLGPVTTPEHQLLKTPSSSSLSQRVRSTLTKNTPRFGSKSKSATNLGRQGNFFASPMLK

T3 sequence (P49327 whole entry): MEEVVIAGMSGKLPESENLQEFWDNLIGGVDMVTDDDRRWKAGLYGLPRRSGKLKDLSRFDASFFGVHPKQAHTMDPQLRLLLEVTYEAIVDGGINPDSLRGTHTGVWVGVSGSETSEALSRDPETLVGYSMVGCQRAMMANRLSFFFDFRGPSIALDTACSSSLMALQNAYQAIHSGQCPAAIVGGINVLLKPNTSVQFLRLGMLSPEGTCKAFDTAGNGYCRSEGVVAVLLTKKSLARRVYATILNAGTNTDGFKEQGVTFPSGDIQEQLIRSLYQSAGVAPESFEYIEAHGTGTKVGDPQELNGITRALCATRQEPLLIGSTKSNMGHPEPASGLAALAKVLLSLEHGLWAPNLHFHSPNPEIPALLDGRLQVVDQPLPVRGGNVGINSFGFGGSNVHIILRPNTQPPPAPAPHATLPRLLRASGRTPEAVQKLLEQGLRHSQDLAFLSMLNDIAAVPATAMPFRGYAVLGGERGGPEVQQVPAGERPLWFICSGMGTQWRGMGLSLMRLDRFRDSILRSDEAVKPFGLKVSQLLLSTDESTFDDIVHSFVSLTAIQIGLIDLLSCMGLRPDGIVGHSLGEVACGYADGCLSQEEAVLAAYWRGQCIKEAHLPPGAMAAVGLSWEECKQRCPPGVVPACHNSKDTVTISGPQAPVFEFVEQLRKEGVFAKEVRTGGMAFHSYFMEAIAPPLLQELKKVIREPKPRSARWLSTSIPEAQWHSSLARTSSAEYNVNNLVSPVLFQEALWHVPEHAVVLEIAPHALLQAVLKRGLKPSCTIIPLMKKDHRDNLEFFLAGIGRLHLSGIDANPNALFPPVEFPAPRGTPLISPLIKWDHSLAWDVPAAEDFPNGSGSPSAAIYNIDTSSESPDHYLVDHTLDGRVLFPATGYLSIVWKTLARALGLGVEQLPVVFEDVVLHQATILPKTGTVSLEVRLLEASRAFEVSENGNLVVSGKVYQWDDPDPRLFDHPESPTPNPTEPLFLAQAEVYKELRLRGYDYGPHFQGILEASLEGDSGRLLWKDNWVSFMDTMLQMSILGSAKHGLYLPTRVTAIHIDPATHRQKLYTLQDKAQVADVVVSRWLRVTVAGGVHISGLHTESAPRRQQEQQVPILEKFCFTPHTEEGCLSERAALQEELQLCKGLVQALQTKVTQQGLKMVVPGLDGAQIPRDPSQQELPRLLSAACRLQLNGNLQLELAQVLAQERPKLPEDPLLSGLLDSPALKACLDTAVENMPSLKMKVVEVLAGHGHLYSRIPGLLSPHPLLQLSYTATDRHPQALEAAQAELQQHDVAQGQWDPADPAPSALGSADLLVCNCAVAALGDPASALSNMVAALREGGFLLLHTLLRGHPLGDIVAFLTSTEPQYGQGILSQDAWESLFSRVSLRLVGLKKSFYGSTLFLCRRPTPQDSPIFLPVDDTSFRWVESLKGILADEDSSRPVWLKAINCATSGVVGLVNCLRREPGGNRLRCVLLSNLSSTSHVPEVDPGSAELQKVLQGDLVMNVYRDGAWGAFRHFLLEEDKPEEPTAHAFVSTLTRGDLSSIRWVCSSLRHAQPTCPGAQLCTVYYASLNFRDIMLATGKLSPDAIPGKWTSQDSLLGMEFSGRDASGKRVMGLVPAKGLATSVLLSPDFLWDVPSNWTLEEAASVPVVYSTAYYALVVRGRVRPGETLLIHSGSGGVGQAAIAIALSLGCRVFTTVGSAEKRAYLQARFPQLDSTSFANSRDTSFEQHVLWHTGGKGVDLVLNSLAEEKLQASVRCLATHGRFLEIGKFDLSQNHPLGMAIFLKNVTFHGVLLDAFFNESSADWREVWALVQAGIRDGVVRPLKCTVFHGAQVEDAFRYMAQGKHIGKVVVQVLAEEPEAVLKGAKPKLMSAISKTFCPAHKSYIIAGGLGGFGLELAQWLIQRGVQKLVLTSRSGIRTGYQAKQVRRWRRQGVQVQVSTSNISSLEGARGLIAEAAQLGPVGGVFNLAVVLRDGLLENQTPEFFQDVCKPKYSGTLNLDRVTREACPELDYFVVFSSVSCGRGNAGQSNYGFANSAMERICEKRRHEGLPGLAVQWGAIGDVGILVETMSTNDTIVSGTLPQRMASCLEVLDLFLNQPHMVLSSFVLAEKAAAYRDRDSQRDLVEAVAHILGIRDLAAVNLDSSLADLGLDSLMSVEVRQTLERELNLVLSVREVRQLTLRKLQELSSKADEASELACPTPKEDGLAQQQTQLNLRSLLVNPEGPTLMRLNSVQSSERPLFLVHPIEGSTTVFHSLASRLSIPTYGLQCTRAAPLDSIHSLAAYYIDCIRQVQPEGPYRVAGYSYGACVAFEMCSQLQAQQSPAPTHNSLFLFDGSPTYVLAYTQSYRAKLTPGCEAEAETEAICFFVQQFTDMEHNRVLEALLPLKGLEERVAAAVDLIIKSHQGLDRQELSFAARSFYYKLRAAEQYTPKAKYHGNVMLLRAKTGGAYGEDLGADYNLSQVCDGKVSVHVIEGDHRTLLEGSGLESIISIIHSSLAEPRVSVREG

## Cc1ccc(N2C(=O)N(CC(=O)Nc3cc(C)cc(C)c3)C(=O)C2C)cc1 (stereo unspecified)
[1]
  IC50: > 50 µM (not active)

## O=C(CC1N=C2c3ccccc3N=C(SCc3ccccc3Cl)N2C1=O)NCc1ccco1 (stereo unspecified)
[2]
  EC50: > 53 µM (inactive)
[3]
  IC50: > 47.1 µM (inactive)

## COc1cc(O)c2c(c1)COC2=O
[2]
  EC50: > 53 µM (inactive)
[3]
  IC50: > 47.1 µM (inactive)

## CC(=O)N(Cc1ccco1)c1nc(C(=O)Nc2ccc(Cl)cc2)c(C)s1
[2]
  EC50: > 53 µM (inactive)
[3]
  IC50: > 47.1 µM (inactive)

## O=C(NCCOc1ccccc1)c1cc([N+](=O)[O-])ccc1N1CCOCC1
[4]
  IC50: > 80 µM (inactive)

## CC(=O)c1c(S)nc(-c2ccccc2)nc1N1CCCC1
[1]
  IC50: > 50 µM (not active)

## CCCCCN(CCCCC)C(=O)C(CCC(=O)O)NC(=O)c1ccc(Cl)c(Cl)c1 (stereo unspecified) [LORGLUMIDE SODIUM]
[5]
  IC50: 5.09 µM (active)
[6]
  IC50: 5.31 µM (active)

## COc1ccc(NC(=O)CCN2CCCCCC2)cc1
[2]
  EC50: > 53 µM (inactive)
[3]
  IC50: > 47.1 µM (inactive)

## CCCCC1(Cc2ccc([N+](=O)[O-])cc2)C(=O)N(c2ccccc2)N(c2ccccc2)C1=O
[7]
  AC50: 3.42 µM (active)
[8]
  AC50: 10.2 µM (active)
[9]
  AC50: 3.67 µM (active)
[10]
  AC50: 66.8 µM (active)

## CC(C)(C)C1CCC(C(=O)OCC(=O)N2CCN(C(=O)c3ccco3)CC2)CC1 (stereo unspecified)
[1]
  IC50: 29.8 µM (not active)

## COC(=O)c1ccc(Oc2cc(C)nc(SC)n2)cc1
[4]
  IC50: > 80 µM (inactive)

## CCN(CC)S(=O)(=O)c1ccc(NC(=O)c2ccc(CN3CCOCC3)cc2)cc1
[4]
  IC50: > 80 µM (inactive)

## c1ccc(-c2nnc3sc(-c4cc5ccccc5o4)nn23)cc1
[11]
  EC50: > 350 µM (not active)
[12]
  EC50: > 350 µM (not active)

## Cc1ccc(C(=O)NC(=S)NCc2cccnc2)c(C)c1
[1]
  IC50: > 50 µM (not active)

## Cc1ccc2c(c1)C(C)CC(C)(C)N2C(=O)CN1CCN(C)CC1 (stereo unspecified)
[2]
  EC50: > 53 µM (inactive)
[13]
  IC50: 73.3 µM (active)
[3]
  IC50: > 47.1 µM (inactive)
